Earlier results, collected in US7335681B2, “Amino ceramide-like compounds and therapeutic methods of use” (The Regents of the University of Michigan, priority 2001, dated 2008).

How the values were obtained:
GlcCer = settings: in vivo
[1] = system: Ehrlich ascites carcinoma cells
E. coli = settings: PDMP treatment

Compound | tissue levels of GlcCer (GlcCer) | antitumor effect in mice [1] | adherence of E. coli to mammalian cells (E. coli) | cellular content of PKC (PKC)
CN(C)CCCN1c2ccccc2Sc2ccc(Cl)cc21 [chlorpromazine] | lower tissue levels of GlcCer |  |  | 
CCCCCCCCCC(=O)N[C@H](CN1CCOCC1)[C@H](O)c1ccccc1 [PDMP, 1R-phenyl-2R-decanoylamino-3-morpholino-1-propanol] |  | cure mice of cancer | reduces the adherence | lower the cellular content of PKC
